Where only a bound is given, the exact number is not on record here.

Assay [1] deals with HCC1954 cells (with PI3Kα H1047R mutation). Put plainly: In vitro inhibition of HCC1954 cell proliferation (CellTiter-Lumi). The settings on record: Homo sapiens, HCC1954, 144 h, HCC1954 cells, 144 h, CellTiter-Lumi; class symbols; read-out: Inhibitory activity against HCC1954 cells (IC50), class symbols. The class given is cell-based. The procedure:
Assay for In Vitro Inhibition of HCC1954 Cell Proliferation by Compounds of the Present Disclosure
The growth of the cells was evaluated, and the IC50 for the inhibition of cell growth by the compounds was calculated.

Assay [2] deals with MCF-7 cells (with PI3Kα E545K mutation). As to the kind of experiment: In vitro inhibition of MCF-7 cell proliferation (CellTiter-Lumi). The settings on record: Homo sapiens, MCF7, 144 h, class symbols, read-out: Inhibitory activity against MCF-7 cells (IC50), class symbols. The class given is cell-based. The method in brief: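 Growth IC50 derived from ATP luminescence (CellTiter-Lumi) after 144 h exposure of MCF-7 cells carrying PI3Kα E545K, plated 2000 cells/well and dosed with serial dilutions one day after seeding.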

Turning to `C=CC(=O)Nc1ccc(N2CCN(c3ccc(-c4ccc5c(c4)-c4nc(N6C(=O)OC[C@H]6C(F)F)cn4CCO5)cc3)CC2)cc1` [Compound 196], the IC50 in assay [1] and in assay [2] was more than 1000 nM in each case.

Regarding `C=CC(=O)N1CC(N2CCC(c3ccc(-c4ccc5c(c4)-c4nc(N6C(=O)OC[C@H]6C(F)F)cn4CCO5)cc3)CC2)C1` [Compound 197], the IC50 in assay [1] is 100 to 1000 nM; in assay [2], less than 50 nM.

As to `C=CC(=O)N1CCC(C2CN(c3ccc(-c4ccc5c(c4)-c4nc(N6C(=O)OC[C@H]6C(F)F)cn4CCO5)cc3)C2)CC1` [Compound 198], the IC50 in assay [1] lay within 100 to 1000 nM; in assay [2], 50 to 100 nM.

Take `C=CC(=O)N1CC(C2CCN(c3ccc(-c4ccc5c(c4)-c4nc(N6C(=O)OC[C@H]6C(F)F)cn4CCO5)cc3)CC2)C1` [Compound 199]: the IC50 in assay [1] was 100 to 1000 nM; in assay [2], less than 50 nM.

For the compound `C=CC(=O)Nc1ccc2c(c1)CCN(CC#Cc1ccc3c(c1)-c1nc(N4C(=O)OC[C@H]4C(F)F)cn1CCO3)C2` [Compound 200], the IC50 in assay [1] is 50 to 100 nM; in assay [2], less than 50 nM.

Regarding `C=CC(=O)Nc1ccc(C2CN(CC#Cc3ccc4c(c3)-c3nc(N5C(=O)OC[C@H]5C(F)F)cn3CCO4)C2)cc1` [Compound 201], the IC50 in assay [1] is 50 to 100 nM; in assay [2], less than 50 nM.

For the compound `C=CC(=O)Nc1ccc(N2CCC(C#Cc3ccc4c(c3)-c3nc(N5C(=O)OC[C@H]5C(F)F)cn3CCO4)CC2)cc1` [Compound 202], the IC50 in assay [1] is 50 to 100 nM; in assay [2] it was less than 50 nM.

Consider `C=CC(=O)Nc1ccc(N2CC(C#Cc3ccc4c(c3)-c3nc(N5C(=O)OC[C@H]5C(F)F)cn3CCO4)C2)cc1` [Compound 203], for which the values for the IC50 in assay [1] and in assay [2] were 50 to 100 nM and less than 50 nM, respectively.

Take `C=CC(=O)Nc1ccc2c(c1)CCN(C1CCN(c3ccc4c(c3)-c3nc(N5C(=O)OC[C@H]5C(F)F)cn3CCO4)CC1)C2` [Compound 204]: the IC50 in assay [1] is 50 to 100 nM; in assay [2] it was less than 50 nM.

As for `C=CC(=O)Nc1ccc2c(c1)CCN2CCN1CCN(c2ccc3c(c2)-c2nc(N4C(=O)OC[C@H]4C(F)F)cn2CCO3)CC1` [Compound 205], the IC50 in assay [1] was 50 to 100 nM; in assay [2] it was less than 50 nM.

As for `C=CC(=O)N1CCc2cc(N3CCN(c4ccc5c(c4)-c4nc(N6C(=O)OC[C@H]6C(F)F)cn4CCO5)CC3)ccc2C1` [Compound 206], the figures for the IC50 in assay [1] and in assay [2] were 50 to 100 nM and less than 50 nM, respectively.

`C=CC(=O)N1CCc2cc(CN3CCN(c4ccc5c(c4)-c4nc(N6C(=O)OC[C@H]6C(F)F)cn4CCO5)CC3)ccc2C1` [Compound 207]: the half-inhibitory concentration (IC50) in assay [1] is 50 to 100 nM; in assay [2] it was less than 50 nM.

Regarding `C=CC(=O)Nc1ccc(N2CC(/C=C/c3ccc4c(c3)-c3nc(N5C(=O)OC[C@H]5C(F)F)cn3CCO4)C2)cc1` [Compound 208], the IC50 is 50 to 100 nM in assay [1] and less than 50 nM in assay [2].

In the case of `C=CC(=O)Nc1ccc(N2CCC(/C=C/c3ccc4c(c3)-c3nc(N5C(=O)OC[C@H]5C(F)F)cn3CCO4)CC2)cc1` [Compound 209], the half-inhibitory concentration (IC50) is 50 to 100 nM in assay [1] and less than 50 nM in assay [2].

Take `C=CC(=O)Nc1ccc(N2CCC(C/C=C/c3ccc4c(c3)-c3nc(N5C(=O)OCC5C(F)F)cn3CCO4)CC2)cc1` (stereo not drawn) [Compound 210]: the IC50 is 50 to 100 nM in assay [1] and less than 50 nM in assay [2].

In the case of `CC(C)(O)C=C(C#N)C(=O)Nc1ccc(N2CC(N3CCN(c4ccc5c(c4)-c4nc(N6C(=O)OC[C@H]6C(F)F)cn4CCO5)CC3)C2)cc1` [Compound 211], the IC50 in assay [1] and in assay [2] was less than 50 nM in each case.

`COC(C)(C)C=C(C#N)C(=O)Nc1ccc(N2CC(N3CCN(c4ccc5c(c4)-c4nc(N6C(=O)OC[C@H]6C(F)F)cn4CCO5)CC3)C2)cc1` [Compound 212]: the half-inhibitory concentration (IC50) in assay [1] and in assay [2] was less than 50 nM each time.

As for `N#CC(=CC1(N)CC1)C(=O)Nc1ccc(N2CC(N3CCN(c4ccc5c(c4)-c4nc(N6C(=O)OC[C@H]6C(F)F)cn4CCO5)CC3)C2)cc1` [Compound 213], the concentration for half-maximal inhibition (IC50) in assay [1] and in assay [2] was less than 50 nM each time.

(Values after patent US20260193268A1, “TRICYCLIC PI3Ka INHIBITOR, PREPARATION METHOD THEREFOR, AND PHARMACEUTICAL USE THEREOF” (WIGEN BIOMEDICINE TECHNOLOGY (SHANGHAI) CO., LTD., priority 2022, published 2026).)
